Results published in publication PMC12560079, “Cytotoxic Triterpene Glycosides from Mexican Sea Cucumber Holothuria inornata” (Journal of Natural Products, 2025).
Where two headings read alike, the source gives them in different places.

Key:
[1] = tested on: human prostatic adenocarcinoma (PC-3); test: SRB cytotoxicity assay, PC-3; assay type: cell-based; conditions: SRB method, 48 h exposure, ± SD, read-out: Cell Line IC50 PC-3
Experimental: (§1) Cytotoxicity was evaluated based on the percentage of cell growth inhibition. The cancer cell lines were obtained from the National Cancer Institute (NCI, Bethesda, MD). The study utilized human cancer cell lines derived from central nervous system glia (U251), prostate (PC-3), leukemia (K562), colon (HCT-15), breast (MCF-7), and lung (SKLU). Each cell line was maintained in RPMI 1640 medium supplemented with fetal bovine serum (10%), L-glutamate (2.0 mM), 10,000 units/mL penicillin G, 10,000 […] sulfate, […] amphotericin B and 1% nonessential amino acids. Cytotoxicity was assessed by treating cancerous cells with the extract, the saponin fraction, and the major isolated compounds, all of which were solubilized in ultrapure water (18.2 MΩ) and tested at a concentration of 25 μg/mL. For the determination of IC50 values, the same cancer cell lines were evaluated and had the same treatment, while the range of concentrations was 25, 12.5, 6.5, 5.0, 2.5, and 1.25 μg/mL in triplicate wells for each concentration; commercially formulated mitoxantrone, used as a water-soluble chemotherapeutic drug, was used as a positive control, and ultrapure water was used as a negative control. The resulting data obtained from the assay for each cell line were analyzed using nonlinear regression to calculate IC50 using GraphPad Prism 10.5.0 (San Diego, CA, USA). The percentage of cell growth inhibition was determined by using the protein-binding dye sulforhodamine B (SRB) in a microculture assay. Cells were harvested from culture flasks and seeded into 96-well plates at a density of 5,000 to 10,000 cells per well, maintaining the same temperature and humidity conditions as during culture incubation. The test compounds were then added, and cells were exposed for 48 h. After incubation, cells were fixed in situ by adding 50 μL of cold 50% trichloroacetic acid and incubating at 4 °C for 1 h. […] The plates were then shaken for 10 min, and absorbance was measured at 515 nm using a microplate spectrophotometer.

[2] = tested on: cancer cell lines U251, PC-3, K562, HCT-15, MCF-7, SKLU-1; test: SRB cytotoxicity assay, panel of six cancer cell lines; assay type: cell-based, human; conditions: for growth inhibition (cytotoxic activity) of cancer cell lines: 25 μg/mL, six cell lines, result in words (Figure 1)
Experimental: Cytotoxicity was evaluated based on the percentage of cell growth inhibition. The cancer cell lines were obtained from the National Cancer Institute (NCI, Bethesda, MD). The study utilized human cancer cell lines derived from central nervous system glia (U251), prostate (PC-3), leukemia (K562), colon (HCT-15), breast (MCF-7), and lung (SKLU). Each cell line was maintained in RPMI 1640 medium supplemented with fetal bovine serum (10%), L-glutamate (2.0 mM), 10,000 units/mL penicillin G, […] streptomycin sulfate, 25 mg/mL amphotericin B and 1% nonessential amino acids. Cytotoxicity was assessed by treating cancerous cells with the extract, the saponin fraction, and the major isolated compounds, all of which were solubilized in ultrapure water (18.2 MΩ) and tested at a concentration of 25 μg/mL. For the determination of IC50 values, the same cancer cell lines were evaluated and had the same treatment, while the range of concentrations was 25, 12.5, 6.5, 5.0, 2.5, and 1.25 μg/mL in triplicate wells for each concentration; commercially formulated mitoxantrone, used as a water-soluble chemotherapeutic drug, was used as a positive control, and ultrapure water was used as a negative control. The resulting data obtained from the assay for each cell line were analyzed using nonlinear regression to calculate IC50 using GraphPad Prism 10.5.0 (San Diego, CA, USA). The percentage of cell growth inhibition was determined by using the protein-binding dye sulforhodamine B (SRB) in a microculture assay. Cells were harvested from culture flasks and seeded into 96-well plates at a density of 5,000 to 10,000 cells per well, maintaining the same temperature and humidity conditions as during culture incubation. The test compounds were then added, and cells were exposed for 48 h. After incubation, cells were fixed in situ by adding 50 μL of cold 50% trichloroacetic acid and incubating at 4 °C for 1 h. The plates were then washed with Milli-Q water, air-dried at room temperature, and stained with a 0.4% SRB solution. Excess SRB was removed by washing with 1% aqueous acetic acid. The plates were air-dried, and the bound dye was solubilized with 100 μL of a 10 mM unbuffered Tris base. The plates were then shaken for 10 min, and absorbance was measured at 515 nm using a microplate spectrophotometer.

[3] = tested on: human colorectal adenocarcinoma (HCT-15); test: SRB cytotoxicity assay, HCT-15; assay type: cell-based; conditions: SRB method, 48 h exposure, ± SD, read-out: Cell Line IC50 HCT-15
Experimental: as §1

[4] = tested on: human glioblastoma (U251); test: SRB cytotoxicity assay, U251; assay type: cell-based; conditions: U-251, SRB method, 48 h exposure, ± SD, read-out: Cell Line IC50 U251
Experimental: as §1

[5] = tested on: human chronic myelogenous leukemia (K562); test: SRB cytotoxicity assay, K562; assay type: cell-based; conditions: SRB method, 48 h exposure, ± SD, read-out: Cell Line IC50 K562
Experimental: as §1

[6] = tested on: human lung adenocarcinoma (SKLU-1); test: SRB cytotoxicity assay, SKLU-1; assay type: cell-based; conditions: SK-LU-1, SRB method, 48 h exposure, ± SD, read-out: Cell Line IC50 SKLU-1
Experimental: as §1

[7] = tested on: human mammary adenocarcinoma (MCF-7); test: SRB cytotoxicity assay, MCF-7; assay type: cell-based; conditions: MCF7, SRB method, 48 h exposure, ± SD, read-out: Cell Line IC50 MCF-7
Experimental: as §1

[8] = Homo sapiens, span over the evaluated cell lines, SRB method, read-out: IC50 values across the tested cancer cell lines

SMILES | IC50 [1] [nM] | growth inhibition (cytotoxic activity) of cancer cell lines ([2]; SRB method) | IC50 [2, 8] [nM] | IC50 [3] [nM] | IC50 [4] [nM] | IC50 [5] [nM] | IC50 [6] [nM] | IC50 [7] [nM] | IC50 ([2]; Homo sapiens, span over MCF-7 and SKLU-1 cell lines, read-out: IC50 values against MCF-7 and SKLU-1) [nM] | IC50 ([2]; span over the evaluated cell lines, SRB method, read-out: IC50 values across the tested cancer cell lines) [nM]
CC(=O)OC(C)(C)CCCC1(C)OC(=O)C23C(O)C=C4C(CCC5C4(C)CCC(OC4OCC(OS(=O)(=O)O)C(O)C4OC4OC(C)C(O)C(O)C4O)C5(C)C)C2(C)CCC13O [Inornatoside A (1), 25-acetoxy-3-O-(β-D-quinovopyranosyl-(1→2)-4-O-sodiumsulfate-β-D-xylopyranoside)-holost-9(11)-ene-3β,12α,17α-triol] | 5350 ± 10 | significantly more active than holothurin B (7) | 3530 to 5350 | 4690 ± 10 | 3530 ± 130 | 4240 ± 20 | 3650 ± 20 | > 50000 | – | –
COC1C(O)C(CO)OC(OC2C(O)C(CO)OC(OC3C(C)OC(OC4C(OC5CCC6(C)C7=CC(O)C89C(=O)OC(C)(CCCC(C)(C)OC(C)=O)C8(O)CCC9(C)C7CCC6C5(C)C)OCC(OS(=O)(=O)O)C4O)C(O)C3O)C2O)C1O [Inornatoside B (2), 25-acetoxy-3-O-(3-O-methyl-β-D-glucopyranosyl-(1→3)-β-D-glucopyranosyl-(1→4)-β-D-quinovopyranosyl-(1→2)-4-O-sodiumsulfate-β-D-xylopyranoside)-holost-9(11)-ene-3β,12α,17α-triol] | 490 ± 10 | significantly more active than holothurin B (7) | 470 to 1040 | 1040 ± 10 | 540 ± 10 | 480 ± 10 | 500 ± 10 | 470 ± 40 | 470 to 500 | ~500
O=C1c2c(O)ccc(O)c2C(=O)c2c(NCCNCCO)ccc(NCCNCCO)c21 [Mitoxantrone, reference compound] | 630 ± 40 | – | 550 to 1160 | 750 ± 40 | 550 ± 40 | 650 ± 20 | 1160 ± 150 | 720 ± 10 | – | –
CC1OC(OC2C(OC3CCC4(C)C5=CC(O)C67C(=O)OC(C)(C8CCC(C)(C)O8)C6(O)CCC7(C)C5CCC4C3(C)C)OCC(OS(=O)(=O)O)C2O)C(O)C(O)C1O (centres unmarked) [holothurin B (7), holothurin B] | – | did not exhibit high sensitivity | – | – | – | – | – | – | – | –
